Measurements reported in US20010049372A1, “Antiviral nucleoside analogues” (BioChem Pharma Inc., priority 1998, published 2001).
Like-named read-outs stand apart in the source and are kept apart here.

What was measured:
Assay type in all cases: cell-based
HIV-1WRM8488 = test: Anti-HIV-1 assay, monocytropic strain (p24); conditions: Human immunodeficiency virus 1; HIV-1WRM8488, m/m cells, determined by p24
Description: (§1) ANTIVIRAL ASSAYS. The anti-HIV-1 activity of the compound A (−) were assessed by employing HIV-1IIIB in a variety of cell types as previously described (Gu et al., 1992, 1994, 1999; Rando et al., 1995; Salomon et al., 1994). Briefly, cells were incubated with virus at a multiplicity of infection (MOI) of 0.005 for T cell assays and an MOI of 0.5 for monocytic cell assays for 3 hrs. Unbound virus was then removed by washing the cells, followed by seeding the cells into a 96-well plate. The infected cells were cultured in the presence of a serial concentrations of the test compound for 5-7 days. The anti-HIV-1 efficacy was determined by testing for HIV-1 RT activity or p24 level in the cell culture supernatants. All assays were performed in duplicate. Zidovudine and/or lamivudine were used as controls in each experiment.
Furthermore, antiretroviral activity of the compound A (−) was also assessed using different types of HIV-1 strains. […]

[1] = system: Zidovudine^R/Lamivudine^R (3) clinical HIV-1 isolates (third group of Table 7); test: microbe, parasite or virus in culture
Description: as §1, with “The anti-HIV-1 activity of the compound A (−) were assessed by employing HIV-1IIIB in a variety of cell types as previously described (Gu et al., 1992, 1994, 1999; Rando et al., 1995; Salomon et al., 1994).” left out
Clinical strains were isolated from PBMCs of HIV-1 infected individuals through co-culture with PBMCs from normal dornors.

[2] = Cellular toxicity by WST-1 staining; conditions: human, CBMCs
Description: The cellular toxicity of the compounds were assessed on various cells using [^3H]-thymidine uptake. Various cells, including Molt-4, HT1080, DU-145, HepG-2 and HSF, were plated at a concentration of 1-2×10^3 cells per well (96 well plates). After a 24 hr incubation period, 10-fold serial diluted compounds (b 10^−4 M to 10^−10 M) were added to the culture medium and the cells were further incubated for 72 hrs. [^3H]-thymidine was added during the final 18 hr incubation period. After incubation with the [^3H]-thymidine, the cells were washed once with PBS, treated with trypsin if the cells were adherent, and then resuspended in water (hypotonic lysing of cells). The cellular extract was applied directly to a Tomtec Harvester 96. Using this instrument the extracted DNA is adsorbed onto filters, washed and the incorporated [^3H]-thymidine is then counted. The 50% cytotoxic concentration (CC50) was determined by comparing the radioactive counts per minute of the samples in the presence of the compounds against the control. The cellular toxicity of the compounds was also tested by WST-1 staining through assessing proliferation of MT-2, H9, Jurkat, U937, and CBMCs. The established cell lines were cultured in RPMI medium in 96-well plates at a density of 5×10^4 cells/well while CBMCs were plated at a concentration of 0.5×10^6/well. A 10-fold serial diluted (10^−4-10^−7 M) compound was added at day zero. At day 4, the cells were passaged by changing half medium containing appropriately diluted compound. The cell activities were assessed at day 7 using the WST-1 reagent (Boehringer Mannheim) following the protocol provided by the supplier.
In the WST-1 staining experiments, cell lines were cultured in RPMI medium in 96-well plates at a density of 5×10^4 cells/well. CBMCs were plated at a concentration of 0.5×10^6/well. Compounds (10^−4-10^−7 M) were added at day zero. Cell viability was assessed on day 7 using the WST-1 reagent (Boehringer Mannheim) following the protocol provided by the supplier.

Molt-4 = test: Cellular toxicity by [3H]-thymidine uptake; conditions: Table 14; 72 hrs; read-out: CC50 (μM) [^3H]TTP incorporation in: Molt4
In short: (§2)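 Cells plated at 1-2×10^3/well, pre-incubated 24 h, then exposed 72 h to 10-fold serial compound dilutions (10^−4 M to 10^−10 M). [3H]-thymidine was added for the final 18 h and DNA incorporation counted after hypotonic lysis and harvesting. CC50 derived from cpm relative to untreated controls.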

HepG-2 = test: Cellular toxicity by [3H]-thymidine uptake; conditions: Table 4; 72 hrs
In short: as §2

HT1080 = test: Cellular toxicity by [3H]-thymidine uptake; conditions: Table 4; 72 hrs
In short: as §2

HSF = test: Cellular toxicity by [3H]-thymidine uptake; conditions: Table 14; 72 hrs; read-out: CC50 (μM) [^3H]TTP incorporation in: HSF
In short: as §2

[3] = Human immunodeficiency virus 1, read-out: EC50 (μM), mean EC50 values
[4] = Human immunodeficiency virus 1, read-out: EC50 (μM), ranges of EC50s of the isolates in the same group

SMILES	EC50 (HIV-1WRM8488) [nM]	EC50 [1, 3] [µM]	EC50 [1, 4] [µM]	CC50 at 7 days ([2]; Table 14, day 7, read-out: CC50 (μM) WST-1 CBMC) [µM]	CC50 (Molt-4) [µM]	CC50 (μM) [^3H-]TTP incorporation in: HepG2 (HepG-2)	CC50 (μM) [^3H-]TTP incorporation in: HT1080 (HT1080)	CC50 (HSF) [µM]	CC50 at 7 days ([2]; Table 4, day 7, read-out: CC50 (μM) WST-1 CBMC) [µM]
Nc1nc(NC2CC2)c2ncn([C@H]3CO[C@@H](CO)O3)c2n1 [Compound A (-), (−)-(2R,4R)-2-hydroxymethyl-4-(2′-amino-6′-cyclopropylamino-purine-9′-yl)-1,3-dioxolane]	28	0.19	0.066 to 0.33	> 100	–	–	–	–	–
Nc1ccn([C@@H]2CS[C@H](CO)O2)c(=O)n1 [Lamivudine, lamivudine]	–	–	–	–	> 100	350/100	>500/100	–	–
Cc1cn([C@H]2C[C@H](N=[N+]=[N-])[C@@H](CO)O2)c(=O)[nH]c1=O [Zidovudine, zidovudine]	< 1.1	0.83	0.25 to 1.74	–	–	–	–	> 10	74
